{"source": "patent US20050192279A1", "about": "“Pyridazinones as antagonists of alpha4 integrins” (priority 2004, published 2005)"}
{"test_system": "alpha 4 beta 7-positive cells", "experiment": "Intraperitoneal Delayed Type Hypersensitivity (IP-DTH) Response", "type": "in vivo, mice", "settings": "30 mg/kg po bid × 2; peritoneal cells 48 h after antigen challenge", "description": "(§1) Intraperitoneal Delayed Type Hypersensitivity (IP-DTH) Response. A Method for Analyzing Effects of Integrin Antagonists In Vivo\n(§2) Integrin antagonists are meant to interfere with the binding or adhesion of immune cells, such as lymphocytes, monocytes and eosinophils that bear integrin receptors to counter-receptors that exist on endothelial cells in the vasculature. Among those integrin-bearing cells, cells that are positive for alpha 4 beta 7 integrin (found in the mesenteric system and in the gut), would comprise many of the cells recruited to a peritoneal antigen challenge. One can maximize the number of alpha 4 beta 7 integrin-positive cells recruited by inducing an intraperitoneal delayed type hypersensitivity response to antigen that will recruite antigen-responsive cells from the mesenteric lymph nodes. An inhibitor of alpha 4 beta 7 integrin should prevent the recruitment of these cells to the site of antigen challenge. Alpha 4 beta 7 integrin-positive cells are considered to be gut-homing, and are found in greater abundance in inflamed tissues of the GI tract and pancrea.\n(§3) The antigenic challenge will induce a delayed type hypersensitivity response. In this model, animals were primed with antigen, then 7 days later were challenged intraperitoneally with the same antigen. During the ensuing 24-48 h, cells that were primed to recognize this antigen should be recruited to the challenge site. If the site is the peritoneal cavity, the recruited cells can be obtained by […] the cavity with a physiological buffer and collecting the lavage fluid.\n(§4) The contribution of alpha 4 beta 7 integrin positive cells to the peritonal cavity cell population was ascertained by using flow cytometry to evaluate their relative percent in this population.\n(§5) The mice were primed via intraperitoneal administration with 25 micrograms ovalbumin in a physiological buffer that may or may not contain alum as an adjuvant.\n(§6) After 7 days, the mice were challenged with 25 micrograms ovalbumin via intraperitoneal administration.\n(§7) Compounds were administered either orally (po), or subcutaneously (sc), either once daily or twice daily, for 2 days, starting on the day of antigen challenge.\n(§8) Forty eight hours after antigen challenge, the elicited cells in the peritoneal cavity were harvested by lavaging the cavity in physiological saline or phosphate buffered saline, with calcium and magnesium salts.\n(§9) The cells were washed into Staining Buffer consisting of phosphate buffered saline, 1% bovine serum albumin and 0.1% sodium azide, and resuspended to 2×10e7 cells/ml. A portion of 1×10e6 cells was deposited into a 96-well V-bottom plate for staining.\n(§10) The sample of 1×10e6 cells was stained with fluorochrome-coupled antibody to alpha 4 beta 7 integrin or a primary antibody to alpha 4 beta 7 integrin followed by a secondary fluorochrome-coupled antibody. Each staining step was carried out at 4° C. for 30 to 45 min with gentle shaking, followed by 4 washes with Staining Buffer at 4° C. The cells were resuspended in 200 microliters of 1% paraformaldehyde in phosphate buffered saline. The cells were then transferred to test tubes and maintained at 4° C. until analyzed by flow cytometry to determine numbers of alpha4 beta7-postive cells.\n(§11) A Becton-Dickenson FACSort (B-D instruments) was used for these studies.\n(§12) Comparisons were made between numbers of alpha 4 beta 7-positive cells in samples taken from antigen-treated animals and numbers of alpha 4 beta 7-positive cells taken from antigen-treated animals administered experimental compounds.", "units": {"% Decrease in recruited α4β7 + cells": "%"}}
{"smiles": "COc1cnn(CCO)c(=O)c1-c1ccc(C[C@H](NC(=O)c2c(Cl)cccc2Cl)C(=O)OCCO)cc1", "note": "[Cpd 199]", "% Decrease in recruited α4β7 + cells": 16.04}
{"test_system": "alpha 4 beta 7-positive cells", "experiment": "Intraperitoneal Delayed Type Hypersensitivity (IP-DTH) Response", "type": "in vivo, mice", "settings": "30 mg/kg sc bid × 2; peritoneal cells 48 h after antigen challenge", "description": "as §1, §2, §3, §4, §5, §6, §7, §8, §9, §10, §11, §12", "units": {"% Decrease in recruited α4β7 + cells": "%"}}
{"smiles": "CNc1cnn(CC(C)=O)c(=O)c1-c1ccc(C[C@H](NC(=O)c2c(Cl)cccc2Cl)C(=O)O)cc1", "note": "[Cpd 18]", "% Decrease in recruited α4β7 + cells": 52.8}
{"test_system": "alpha 4 beta 7-positive cells", "experiment": "Intraperitoneal Delayed Type Hypersensitivity (IP-DTH) Response", "type": "in vivo, mice", "settings": "Mus musculus, po, 48 h, 30 mg/kg po bid × 2; peritoneal cells 48 h after antigen challenge; read-out: % Decrease in recruited α4β7 + cells", "description": "as §1, §2, §3, §4, §5, §6, §7, §8, §9, §10, §11, §12", "units": {"inhibition in vivo at 30 mg/kg": "%"}}
{"smiles": "COc1cnn(C)c(=O)c1-c1ccc(C[C@H](NC(=O)c2c(Cl)cccc2Cl)C(=O)OCC(C)(C)C)cc1", "note": "[Cpd 207]", "inhibition in vivo at 30 mg/kg": 25.6}
{"smiles": "COc1cnn(CCO)c(=O)c1-c1ccc(C[C@H](NC(=O)OC(C)(C)C)C(=O)O)cc1", "note": "[Cpd 120]", "inhibition in vivo at 30 mg/kg": 25.4}
{"smiles": "Cn1ncc(N)c(-c2ccc(C[C@H](NC(=O)c3c(Cl)cccc3Cl)C(=O)OCCO)cc2)c1=O", "note": "[Cpd 232]", "inhibition in vivo at 30 mg/kg": 47.8}
{"test_system": "alpha 4 beta 7-positive cells", "experiment": "Intraperitoneal Delayed Type Hypersensitivity (IP-DTH) Response", "type": "in vivo, mice", "settings": "Mus musculus, sc, 48 h, 30 mg/kg sc bid × 2; peritoneal cells 48 h after antigen challenge; read-out: % Decrease in recruited α4β7 + cells", "description": "as §1, §2, §3, §4, §5, §6, §7, §8, §9, §10, §11, §12", "units": {"inhibition in vivo at 30 mg/kg": "%"}}
{"smiles": "COc1cnn(CCO)c(=O)c1-c1ccc(C[C@H](NC(=O)c2c(Cl)cccc2Cl)C(=O)O)cc1", "note": "[Cpd 15, (S)-2-(2,6-Dichloro-benzoylamino)-3{4-[2-(2-hydroxy-ethyl)-5-methoxy-3-oxo-2,3-dihydro-pyridazin-4-yl]-phenyl}-propionic acid]", "inhibition in vivo at 30 mg/kg": 10.4}
{"smiles": "COc1cnn(CC(N)=O)c(=O)c1-c1ccc(C[C@H](NC(=O)c2c(Cl)cccc2Cl)C(=O)O)cc1", "note": "[Cpd 5]", "inhibition in vivo at 30 mg/kg": 53.4}
{"smiles": "O=C(N[C@@H](Cc1ccc(-c2c(OCc3cccnc3)cnn(CCO)c2=O)cc1)C(=O)O)c1c(Cl)cccc1Cl", "note": "[Cpd 30]", "inhibition in vivo at 30 mg/kg": 37.4}
{"smiles": "Cn1ncc(N)c(-c2ccc(C[C@H](NC(=O)c3c(Cl)cccc3Cl)C(=O)O)cc2)c1=O", "note": "[Cpd 46]", "inhibition in vivo at 30 mg/kg": 56.6}
{"smiles": "COc1cnn(CCN2CCOCC2)c(=O)c1-c1ccc(C[C@H](NC(=O)c2c(Cl)cccc2Cl)C(=O)O)cc1", "note": "[Cpd 10]", "inhibition in vivo at 30 mg/kg": 56.3}
{"smiles": "COc1cnn(CC(=O)O)c(=O)c1-c1ccc(C[C@H](NC(=O)c2c(Cl)cccc2Cl)C(=O)O)cc1", "note": "[Cpd 11]", "inhibition in vivo at 30 mg/kg": 70.5}
{"smiles": "O=C(N[C@@H](Cc1ccc(-c2c(N3CCOCC3)cnn(CCO)c2=O)cc1)C(=O)O)c1c(Cl)cccc1Cl", "note": "[Cpd 61]", "inhibition in vivo at 30 mg/kg": 37.4}
{"smiles": "O=C(N[C@@H](Cc1ccc(-c2c(OCC3CC3)cnn(CCO)c2=O)cc1)C(=O)O)c1c(Cl)cccc1Cl", "note": "[Cpd 35]", "inhibition in vivo at 30 mg/kg": 49.8}
